Laboratory results published in the supplement of paper PMC11061612.

Tests used:
AZD2811 = compound: CCN(CCO)CCCOc1ccc2c(Nc3cc(CC(=O)Nc4cccc(F)c4)[nH]n3)ncnc2c1 [AZD2811]; details: max 1 µM
How it was run: (§1)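 In 1536-well plates, cancer cell lines in 7.5 μl DMEM/F12 or RPMI with 10% FBS spent 24 hours at 37°C and 5% CO2 and were then dosed for 72 hours with final DMSO typically 0.2%. Viability was read by CellTiter-Glo 2.0 luminescence and scaled between blank-well and DMSO-well means. The single-agent IC50 was fitted from dose responses using a logistic curve in a non-linear mixed effects model, and that logistic curve had two parameters.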

AZD8186 = compound: C[C@@H](Nc1cc(F)cc(F)c1)c1cc(C(=O)N(C)C)cc2c(=O)cc(N3CCOCC3)oc12 [AZD8186]; details: max 3 µM
How it was run: as §1

Olaparib = compound: O=C(c1cc(Cc2n[nH]c(=O)c3ccccc23)ccc1F)N1CCN(C(=O)C2CC2)CC1 [Olaparib]; details: max 10 µM
How it was run: as §1

Prexasertib = compound: COc1cccc(OCCCN)c1-c1cc(Nc2cnc(C#N)cn2)n[nH]1 [Prexasertib]; details: max 1 µM
How it was run: as §1

AZD0156 = compound: CN(C)CCCOc1ccc(-c2ccc3ncc4c(c3c2)n(C2CCOCC2)c(=O)n4C)cn1 [AZD0156]; details: max 3 µM
How it was run: as §1

Taselisib = compound: Cc1nc(-c2cn3c(n2)-c2ccc(-c4cnn(C(C)(C)C(N)=O)c4)cc2OCC3)n(C(C)C)n1 [Taselisib]; details: max 10 µM
How it was run: as §1

Gefitinib = compound: COc1cc2ncnc(Nc3ccc(F)c(Cl)c3)c2cc1OCCCN1CCOCC1 [Gefitinib]; details: max 10 µM
How it was run: as §1

Trametinib = compound: CC(=O)Nc1cccc(-n2c(=O)n(C3CC3)c(=O)c3c(Nc4ccc(I)cc4F)n(C)c(=O)c(C)c32)c1 [Trametinib]; details: max 1 µM
How it was run: as §1

AZD4320 = compound: CN(CC[C@H](CSC1=CC=CC=C1)NC2=C(C=C(C=C2)S(=O)(=O)NC(=O)C3=CC=C(C=C3)N4CCC(CC4)[C@H](C5=CC=CC=C5C6=CC=C(C=C6)Cl)O)S(=O)(=O)C(F)(F)F)CCO [AZD4320]; details: max 1 µM
How it was run: as §1

Doxorubicin = compound: COc1cccc2c1C(=O)c1c(O)c3c(c(O)c1C2=O)C[C@@](O)(C(=O)CO)C[C@@H]3O[C@H]1C[C@H](N)[C@H](O)[C@H](C)O1 [Doxorubicin]; details: max 1 µM
How it was run: as §1

AZD6738 = compound: C[C@@H]1COCCN1C2=NC(=NC(=C2)C3(CC3)[S@](=N)(=O)C)C4=C5C=CNC5=NC=C4 [AZD6738]; details: max 10 µM
How it was run: as §1

Capivasertib = compound: C1CN(CCC1(C(=O)N[C@@H](CCO)C2=CC=C(C=C2)Cl)N)C3=NC=NC4=C3C=CN4 [Capivasertib]; details: max 10 µM
How it was run: as §1

Alisertib = compound: COc1cc(Nc2ncc3c(n2)-c2ccc(Cl)cc2C(c2c(F)cccc2OC)=NC3)ccc1C(=O)O [Alisertib]; details: max 10 µM
How it was run: as §1

AZD7648 = compound: Cc1cc2ncnn2cc1Nc1ncc2c(n1)n(C1CCOCC1)c(=O)n2C [AZD7648]; details: max 10 µM
How it was run: as §1

SG3199 = compound: CC1=CN2[C@@H](C1)C=NC3=CC(=C(C=C3C2=O)OC)OCCCCCOC4=C(C=C5C(=C4)N=C[C@@H]6CC(=CN6C5=O)C)OC [SG3199]; details: max 0.001 µM
How it was run: as §1

Dasatinib = compound: CC1=C(C(=CC=C1)Cl)NC(=O)C2=CN=C(S2)NC3=CC(=NC(=N3)C)N4CCN(CC4)CCO [Dasatinib]; details: max 2 µM
How it was run: as §1

Crizotinib = compound: C[C@@H](Oc1cc(-c2cnn(C3CCNCC3)c2)cnc1N)c1c(Cl)ccc(F)c1Cl [Crizotinib]; details: max 10 µM
How it was run: as §1

AZD1775 = compound: C=CCn1c(=O)c2cnc(Nc3ccc(N4CCN(C)CC4)cc3)nc2n1-c1cccc(C(C)(C)O)n1 [AZD1775]; details: max 3 µM
How it was run: as §1

AZD5991 = compound: Cc1c2c(nn1C)CSCc1cc(n(C)n1)CSc1cc(c3ccccc3c1)OCCCc1c(C(=O)O)n(C)c3c-2c(Cl)ccc13 [AZD5991]; details: max 1 µM
How it was run: as §1

SN-38 = compound: CCc1c2c(nc3ccc(O)cc13)-c1cc3c(c(=O)n1C2)COC(=O)[C@]3(O)CC [SN-38]; details: max 0.3 µM
How it was run: as §1

Lapatinib = compound: CS(=O)(=O)CCNCc1ccc(-c2ccc3ncnc(Nc4ccc(OCc5cccc(F)c5)c(Cl)c4)c3c2)o1 [Lapatinib]; details: max 10 µM
How it was run: as §1

AZD1390 = compound: CC(C)n1c(=O)n(C)c2cnc3cc(F)c(-c4ccc(OCCCN5CCCCC5)nc4)cc3c21 [AZD1390]; details: max 0.3 µM
How it was run: as §1

Savolitinib = compound: C[C@@H](c1ccc2nccn2c1)n1nnc2ncc(-c3cnn(C)c3)nc21 [Savolitinib]; details: max 1 µM
How it was run: as §1

Palbociclib = compound: CC(=O)c1c(C)c2cnc(Nc3ccc(N4CCNCC4)cn3)nc2n(C2CCCC2)c1=O [Palbociclib]; details: max 10 µM
How it was run: as §1

AZD5153 = compound: COc1nnc2ccc(N3CCC(c4ccc(OCCN5CCN(C)C(=O)[C@H]5C)cc4)CC3)nn12 [AZD5153]; details: max 1 µM
How it was run: as §1

Venetoclax = compound: CC1(C)CCC(CN2CCN(c3ccc(C(=O)NS(=O)(=O)c4ccc(NCC5CCOCC5)c([N+](=O)[O-])c4)c(Oc4cnc5[nH]ccc5c4)c3)CC2)=C(c2ccc(Cl)cc2)C1 [Venetoclax]; details: max 1 µM
How it was run: as §1

Selumetinib = compound: Cn1cnc2c(F)c(Nc3ccc(Br)cc3Cl)c(C(=O)NOCCO)cc21 [Selumetinib]; details: max 10 µM
How it was run: as §1

Row | Cell Line | IC50, cell viability 72 h (AZD2811) | IC50, cell viability 72 h (AZD8186) | IC50, cell viability 72 h (Olaparib) | IC50, cell viability 72 h (Prexasertib) | IC50, cell viability 72 h (AZD0156) | IC50, cell viability 72 h (Taselisib) | IC50, cell viability 72 h (Gefitinib) | IC50, cell viability 72 h (Trametinib) | IC50, cell viability 72 h (AZD4320) | IC50, cell viability 72 h (Doxorubicin) | IC50, cell viability 72 h (AZD6738) | IC50, cell viability 72 h (Capivasertib) | IC50, cell viability 72 h (Alisertib) | IC50, cell viability 72 h (AZD7648) | IC50, cell viability 72 h (SG3199) | IC50, cell viability 72 h (Dasatinib) | IC50, cell viability 72 h (Crizotinib) | IC50, cell viability 72 h (AZD1775) | IC50, cell viability 72 h (AZD5991) | IC50, cell viability 72 h (SN-38) | IC50, cell viability 72 h (Lapatinib) | IC50, cell viability 72 h (AZD1390) | IC50, cell viability 72 h (Savolitinib) | IC50, cell viability 72 h (Palbociclib) | IC50, cell viability 72 h (AZD5153) | IC50, cell viability 72 h (Venetoclax) | IC50, cell viability 72 h (Selumetinib)
1 | Daoy (Other Solid Carcinomas) | > 1000 nM | > 3000 nM | > 10000 nM | 46.7 nM | > 3000 nM | 4730 nM | > 10000 nM | > 1000 nM | > 1000 nM | 141 nM | 3180 nM | > 10000 nM | 818 nM | > 10000 nM | > 1 nM | > 2000 nM | > 10000 nM | 398 nM | > 1000 nM | 4.44 nM | > 10000 nM | > 300 nM | > 1000 nM | > 10000 nM | 489 nM | > 1000 nM | > 10000 nM
2 | 42-MG-BA (Glioblastoma) | > 1000 nM | 2530 nM | > 10000 nM | 25.3 nM | > 3000 nM | 627 nM | > 10000 nM | > 1000 nM | > 1000 nM | 163 nM | 8570 nM | 2250 nM | 8550 nM | > 10000 nM | > 1 nM | 54.6 nM | > 10000 nM | 1050 nM | 299 nM | 7.39 nM | > 10000 nM | > 300 nM | > 1000 nM | > 10000 nM | 401 nM | > 1000 nM | > 10000 nM
3 | EC-GI-10 (Esophageal Squamous Cell Carcinoma) | > 1000 nM | > 3000 nM | > 10000 nM | 171 nM | > 3000 nM | 496 nM | 3700 nM | 283 nM | > 1000 nM | > 1000 nM | 8220 nM | > 10000 nM | 9240 nM | > 10000 nM | > 1 nM | > 2000 nM | > 10000 nM | 516 nM | > 1000 nM | 17.4 nM | 770 nM | > 300 nM | > 1000 nM | > 10000 nM | > 1000 nM | > 1000 nM | > 10000 nM
4 | LU-135 (Small Cell Lung Carcinoma) | 25.7 nM | > 3000 nM | > 10000 nM | 343 nM | > 3000 nM | > 10000 nM | > 10000 nM | > 1000 nM | 17.6 nM | 214 nM | 6100 nM | > 10000 nM | 317 nM | > 10000 nM | > 1 nM | > 2000 nM | 2590 nM | 1840 nM | > 1000 nM | 27.9 nM | 9730 nM | > 300 nM | > 1000 nM | > 10000 nM | 66.1 nM | > 1000 nM | > 10000 nM
